# Experimental data: ChEMBL document CHEMBL3390836, “Mannich- and LedererManasse-based analogues of the natural product S-(+)-curcuphenol as cancer proliferation and migration inhibitors” (Medchemcomm, 2012)
# Columns and labels:
# SK-MEL-2 = experiment: Cytotoxicity against human SK-MEL-2 cells assessed as cell growth at 10 uM after 48 hrs by SRB assay relative to control; assay type: functional; conditions: SK-MEL-2, 48 h, read-out: Activity
# SK-MEL-28 = experiment: Cytotoxicity against human SK-MEL-28 cells assessed as cell growth at 10 uM after 48 hrs by SRB assay relative to control; assay type: functional; conditions: SK-MEL-28, 48 h, read-out: Activity
# SF-539 = experiment: Cytotoxicity against human SF539 cells assessed as cell growth at 10 uM after 48 hrs by SRB assay relative to control; assay type: functional; conditions: SF-539, 48 h, read-out: Activity
# HT-29 = experiment: Cytotoxicity against human HT-29 cells assessed as cell growth at 10 uM after 48 hrs by SRB assay relative to control; assay type: functional; conditions: HT-29, 48 h, read-out: Activity
# [1] = Cytotoxicity against human OVCAR3 cells assessed as cell growth at 10 uM after 48 hrs by SRB assay relative to control; assay type: functional; conditions: OVCAR-3, 48 h, read-out: Activity
# MDA-MB-231 [2] = experiment: Cytotoxicity against human MDA-MB-231 cells assessed as cell growth at 10 uM after 48 hrs by SRB assay relative to control; assay type: functional; conditions: MDA-MB-231, 48 h, read-out: Activity
# [3] = Cytotoxicity against human OVCAR8 cells assessed as cell growth at 10 uM after 48 hrs by SRB assay relative to control; assay type: functional; conditions: OVCAR-8, 48 h, read-out: Activity
# SF-295 = experiment: Cytotoxicity against human SF295 cells assessed as cell growth at 10 uM after 48 hrs by SRB assay relative to control; assay type: functional; conditions: SF-295, 48 h, read-out: Activity
# [4] = Cytotoxicity against human UACC62 cells assessed as cell growth at 10 uM after 48 hrs by SRB assay relative to control; assay type: functional; conditions: UACC-62, 48 h, read-out: Activity
# IGROV-1 = experiment: Cytotoxicity against human IGROV1 cells assessed as cell growth at 10 uM after 48 hrs by SRB assay relative to control; assay type: functional; conditions: IGROV-1, 48 h, read-out: Activity
# MDA-MB-231 [5] = experiment: Cytotoxicity against human MDA-MB-231 cells assessed as growth inhibition after 24 hrs by MTT assay; assay type: cell-based; conditions: MDA-MB-231, 24 h
# MCF7 [6] = experiment: Growth inhibition of human MCF7 cells after 72 hrs by MTT assay; assay type: functional, cell-based; conditions: MCF7, 72 h
# SW-620 = experiment: Cytotoxicity against human SW620 cells assessed as cell growth at 10 uM after 48 hrs by SRB assay relative to control; assay type: functional; conditions: SW-620, 48 h, read-out: Activity
# MOLT-4 = experiment: Cytotoxicity against human MOLT4 cells assessed as cell growth at 10 uM after 48 hrs by SRB assay relative to control; assay type: functional; conditions: MOLT-4, 48 h, read-out: Activity
# HOP-62 = experiment: Cytotoxicity against human HOP62 cells assessed as cell growth at 10 uM after 48 hrs by SRB assay relative to control; assay type: functional; conditions: HOP-62, 48 h, read-out: Activity
# T47D = experiment: Cytotoxicity against human T47D cells assessed as cell growth at 10 uM after 48 hrs by SRB assay relative to control; assay type: functional; conditions: read-out: Activity
# [7] = Cytotoxicity against human Hs 578T cells assessed as cell growth at 10 uM after 48 hrs by SRB assay relative to control; assay type: functional; conditions: read-out: Activity
# NCI-H460 = experiment: Cytotoxicity against human NCI-H460 cells assessed as cell growth at 10 uM after 48 hrs by SRB assay relative to control; assay type: functional; conditions: NCI-H460, 48 h, read-out: Activity
# [8] = Cytotoxicity against human HCT15 cells assessed as cell growth at 10 uM after 48 hrs by SRB assay relative to control; assay type: functional; conditions: HCT-15, 48 h, read-out: Activity
# NCI-H226 = experiment: Cytotoxicity against human NCI-H226 cells assessed as cell growth at 10 uM after 48 hrs by SRB assay relative to control; assay type: functional; conditions: NCI-H226, 48 h, read-out: Activity
# ACHN = experiment: Cytotoxicity against human ACHN cells assessed as cell growth at 10 uM after 48 hrs by SRB assay relative to control; assay type: functional; conditions: read-out: Activity
# HCC 2998 = experiment: Cytotoxicity against human HCC2998 cells assessed as cell growth at 10 uM after 48 hrs by SRB assay relative to control; assay type: functional; conditions: HCC 2998, 48 h, read-out: Activity
# RPMI-8226 = experiment: Cytotoxicity against human RPMI8226 cells assessed as cell growth at 10 uM after 48 hrs by SRB assay relative to control; assay type: functional; conditions: RPMI-8226, 48 h, read-out: Activity
# [9] = Cytotoxicity against human UO31 cells assessed as cell growth at 10 uM after 48 hrs by SRB assay relative to control; assay type: functional; conditions: UO-31, 48 h, read-out: Activity
# [10] = Cytotoxicity against human NCI-ADR-RES cells assessed as cell growth at 10 uM after 48 hrs by SRB assay relative to control; assay type: functional; conditions: read-out: Activity
# [11] = Cytotoxicity against human OVCAR5 cells assessed as cell growth at 10 uM after 48 hrs by SRB assay relative to control; assay type: functional; conditions: OVCAR-5, 48 h, read-out: Activity
# MCF7 [12] = experiment: Cytotoxicity against human MCF7 cells assessed as cell growth at 10 uM after 48 hrs by SRB assay relative to control; assay type: functional; conditions: MCF7, 48 h, read-out: Activity
# COLO 205 = experiment: Cytotoxicity against human COLO205 cells assessed as cell growth at 10 uM after 48 hrs by SRB assay relative to control; assay type: functional; conditions: COLO 205, 48 h, read-out: Activity
# SN12C = experiment: Cytotoxicity against human SN12C cells assessed as cell growth at 10 uM after 48 hrs by SRB assay relative to control; assay type: functional; conditions: read-out: Activity
# NCI-H23 = experiment: Cytotoxicity against human NCI-H23 cells assessed as cell growth at 10 uM after 48 hrs by SRB assay relative to control; assay type: functional; conditions: NCI-H23, 48 h, read-out: Activity
# [13] = Cytotoxicity against human EKVX cells assessed as cell growth at 10 uM after 48 hrs by SRB assay relative to control; assay type: functional; conditions: read-out: Activity
# [14] = Cytotoxicity against human OVCAR4 cells assessed as cell growth at 10 uM after 48 hrs by SRB assay relative to control; assay type: functional; conditions: OVCAR-4, 48 h, read-out: Activity
# 786-0 = experiment: Cytotoxicity against human 786-0 cells assessed as cell growth at 10 uM after 48 hrs by SRB assay relative to control; assay type: functional; conditions: 786-0, 48 h, read-out: Activity
# TK-10 = experiment: Cytotoxicity against human TK10 cells assessed as cell growth at 10 uM after 48 hrs by SRB assay relative to control; assay type: functional; conditions: TK-10, 48 h, read-out: Activity
# RXF 393 = experiment: Cytotoxicity against human RXF393 cells assessed as cell growth at 10 uM after 48 hrs by SRB assay relative to control; assay type: functional; conditions: RXF 393, 48 h, read-out: Activity
# [15] = Cytotoxicity against human HCT116 cells assessed as cell growth at 10 uM after 48 hrs by SRB assay relative to control; assay type: functional; conditions: HCT-116, 48 h, read-out: Activity
smiles,measurement,setting,value
CC(C)=CCC[C@H](C)c1ccc(C)cc1O,growth at 10 µM,SK-MEL-2,147%
same,growth at 10 µM,SK-MEL-28,119%
same,growth at 10 µM,SF-539,103%
same,growth at 10 µM,HT-29,103%
same,growth at 10 µM,[1],96.3%
same,growth at 10 µM,MDA-MB-231 [2],97.1%
same,growth at 10 µM,[3],108%
same,growth at 10 µM,SF-295,107%
same,growth at 10 µM,[4],100%
same,growth at 10 µM,IGROV-1,97.8%
same,IC50,MDA-MB-231 [5],> 20 µM
same,IC50,MCF7 [6],> 20 µM
same,growth at 10 µM,SW-620,114%
same,growth at 10 µM,MOLT-4,102%
same,growth at 10 µM,HOP-62,102%
same,growth at 10 µM,T47D,111%
same,growth at 10 µM,[7],114%
same,growth at 10 µM,NCI-H460,107%
same,growth at 10 µM,[8],109%
same,growth at 10 µM,NCI-H226,107%
same,growth at 10 µM,ACHN,109%
same,growth at 10 µM,HCC 2998,99.5%
same,growth at 10 µM,RPMI-8226,99.9%
same,growth at 10 µM,[9],83%
same,growth at 10 µM,[10],99%
same,growth at 10 µM,[11],99%
same,growth at 10 µM,MCF7 [12],97.8%
same,growth at 10 µM,COLO 205,117%
same,growth at 10 µM,SN12C,105%
same,growth at 10 µM,NCI-H23,94.9%
same,growth at 10 µM,[13],110%
same,growth at 10 µM,[14],100%
same,growth at 10 µM,786-0,79.9%
same,growth at 10 µM,TK-10,110%
same,growth at 10 µM,RXF 393,103%
same,growth at 10 µM,[15],97.3%
